One compound from patent US20260232681A1, “CRYSTALLINE FORMS OF N-[4-[4-(4-MORPHOLINYL)-7H-PYRROLO[2,3-D]PYRIMIDIN-6- YL]PHENYL]-4-[[3(R)-[(L-OXO-2-PROPEN-L-YL)AMINO]-L-PIPERIDINYL]METHYL]-2-PYRIDINECARBOXAMIDE AS A COVALENT INHIBITOR OF MENIN-MLL INTERACTION” (BIOMEA FUSION, INC., priority 2023, published 2026) can be followed below.

“Also recorded” adds a separate entry of the source. Some results are limits rather than exact numbers.

Test [1] has as its system Zucker Diabetic Fatty (ZDF) rats. Kind of test: Glycemic control in ZDF rats, 16-day dosing plus two-week washout (Examples 102, 105). The format is in vivo, rat. How it is done:
The present examples provides the ability of Compound 10 to restore glycemic control to diabetic Zucker diabetic fatty rats (ZDF rats, genotype ZDF-Lepr^fa/Crl; Charles River). Cornicelli et al., 2005, Charles River.
Control and test compounds were stored at 4° C. and prepared weekly as needed. The vehicle for positive control pioglitazone was 0.25% carboxymethylcellulose and 1% Tween® 80 in reverse osmosis deionized water. The vehicle for Compound 10 was 10% DMSO, 10% Solutol HS 15, and 80% (10% hydroxypropyl-β-cyclodextrin in 50 mM citrate buffer at pH 3.0).
On Day −3, twenty-four ZDF rats (plus eight spare ZDF rats) were measured for body weight and non-fasting glucose. LabDiet 5008 was provided ad libitum throughout the study, except during designated procedures, as was water. In order to minimize the effects of stress on blood glucose and body, all animals including the spares received daily sham doses with phosphate buffered saline pH 7.2 (dose volume 5 mL/kg) via gavage beginning on Study Day −5 to Day −1.
Vehicle, control, and test compound were administered via oral gavage according to the following design on Days 1-16.
On Days −3, 1, 8, and 14 non-fasting blood glucose was measured. On Day 15, an oral glucose tolerance test was administered. The animals were weighed, and the animals were placed in clean cages without food. Access to water was provided throughout the procedure. The animals were fasted for five hours and a blood glucose measurement was determined. The animals were dosed via oral gavage with 2 g/kg glucose (10 mL/kg). Blood glucose was determined via tail snip. The second drop of blood from the animal was placed on a hand-held glucometer (Abbott Alpha Trak) at the following times relative to the glucose dose: zero (just prior to glucose dose), 15, 30, 60, 90, and 120 min. Following the final blood glucose measurement, food was returned to the cages. On Day 17, 4-hour fasting glucose was measured. Serum samples were used to measure insulin by ELISA. Analysis was performed in one to three days of each collections. On Day 17, terminal blood collection was obtained at about 8 mL per animal and measured for blood glucose.
ZDF rats were treated daily with Compound 10, vehicle, or pioglitazone for sixteen days and monitored for an additional two weeks post-treatment until Day 29. STZ rat models were induced through pre-treatment of animals on a high-fat diet with low doses of streptozotocin at Day −14 and Day −7 prior to starting treatment at Day Zero until Day 16. ZDF and STZ rats were monitored for fasting blood glucose levels, oral glucose tolerance test (OGTT), insulin and C-peptide levels, HOMA-IR (Homeostatic Model Assessment of Insulin Resistance), blood lipemic levels, and body weight according to the schematic for each model below. ZDF rats were analyzed for indicated readouts for fifteen days post-treatment for OGTT at Day 29, and serum insulin and C-peptide at Day 31.
ZDF Rat Model—three treatment groups 1. Vehicle; 2. Compound 10 at 175 mg/kg; and 3. Pioglitazone at 30 mg/kg; n=10 per group. Daily dosing zero to sixteen days QD→drug wash out at sixteen to twenty-nine days. Rats were monitored for the following parameters through dosing and wash out phases—body weight, fasting blood sugar, blood insulin, C-peptide, and OGTT.

The subject of test [2] is DLBCL cell lines (DHL, THL, DEL, GCB). Kind of test: DLBCL cell line proliferation (Cell Titer Glo, four days). The format is cell-based. The protocol: (§1) Compound A was tested against a THL cell line (VAL), and a DEL cell line (U2932). An expanded panel of DHL cell lines were tested for sensitivity to Compound A. Ex vivo patient samples of THL and MYC-amplified DLBCL were tested with Compound A. Sensitivity of THL and MYC-driven DLBCL in both in vitro and ex vivo models were compared with clinical reversible menin inhibitors. Compound A was tested against a panel of MM cell lines and ex vivo MM patient samples of p53del, 13qdel, and relapsed/refractory cases.
(§2) DLBCL cell line TOLEDO was cultured in the presence of Compound A or clinical reversible menin inhibitors for six and fourteen hours. Menin protein expression was reduced up to 60% at 1 μM by Compound A after fourteen hours compared to clinical reversible inhibitors at <20% at similar concentrations. Menin protein expression was measured by the Wes system and analyzed using the Compass software (automated western blotting, Protein Simple). Signal was normalized to GAPDH and referenced to DMSO control (FIG. 171E). DLBCL and MM cell lines were cultured with Compound A, bortezomib (PS-341), or DMSO for four days and cell proliferation was measured by Cell Titer Glo. Ex vivo studies of DLBCL and MM models were conducted by measurement of cell proliferation (Cell Titer Glo) after six days of treatment with Compound A, PS-341, or DMSO control.
(In general: Cellular ATP, detected with luciferase, serves as a proxy for viable cell number.)

The subject of test [3] is patient-derived DLBCL Triple Hit Lymphoma (THL) and MYC-amplified PDX samples. Kind of test: Ex vivo DLBCL PDX samples (THL, MYC-amplified), six days. It counts as cell-based, human. Particulars: THL/R-CHOP-refractory and MYC amplification/R-EPOCH refractory profiles. How it is done: as §1, §2
Setting [4] is: 16 days treatment, listed as Compound 10.

Take `C=CC(=O)N[C@@H]1CCCN(Cc2ccnc(C(=O)Nc3ccc(-c4cc5c(N6CCOCC6)ncnc5[nH]4)cc3)c2)C1` [Compound A, N-[4-[4-(4-morpholinyl)-7H-pyrrolo[2,3-d]pyrimidin-6-yl]phenyl]-4-[[3(R)-[(1-oxo-2-propen-1-yl)amino]-1-piperidinyl]methyl]-2-pyridinecarboxamide]: the blood lipemic levels result in test [1] (setting [4]) is “significantly reduces; also recorded: Significant reductions”. Moreover, the body weight entry in test [1] (setting [4]) is “reduces body weight; also recorded: Significant reductions”. For the same compound, the “oral glucose tolerance test, glucose control” value was “significant glucose control” in test [1] (Day 29, after fourteen days of no treatment) and “significant glucose control” in test [1] (after fifteen days of treatment). Besides, in test [1] (after two weeks of treatment, p<0.05), the “serum insulin and C-peptide levels” value is “significantly reduced”. Further, the “insulin in the non-fasting and fasting states” value in test [1] (compared to vehicle and control) is “significant reduction”. The “4-hour fasting insulin and glucose” value in test [1] (no therapy for two weeks) was “increasing insulin and glucose lowering”. Besides, the “insulin resistance (HOMA-IR)” value in test [1] (non-fasting and fasting, listed as Compound 10) is on record as “significant reduction; also recorded: increases insulin sensitivity; also recorded: reduced”. Further, in test [1] (oral gavage Days 1-16, compared to vehicle and control), the “glucose in the non-fasting and fasting states” value was “significant reduction”. Further, the C-peptide result in test [1] (two weeks after therapy) was “increasing C-peptide”. The cell lethality in test [2] (DHL, THL, and DEL DLBCL cell lines, four days) was over 90%. In test [2] (VAL, U2932), the “growth inhibition of THL and DEL cell line models” value is recorded as “complete growth inhibition”. In addition, in test [3], the “growth inhibition of ex vivo patient samples” value was “complete growth inhibition”.
